Experimental findings from patent US5382586A, “Aryl (or heteroaryl)piperazinylalkylazole derivatives, their preparation and their application as medicaments” (priority 1991, dated 1995) are described below.

Experiment [1] relates to conditioned avoidance response in male Wistar rats. Description: conditioned avoidance response test (inhibition of the conditioned avoidance response; anxiolytic/tranquillising activity). In kind it is in vivo, rat (male Wistar). The conditions noted are these: rat; for Activity % (inhibition of the conditioned avoidance response): D = 80 mg/kg, p.o., 45 min before test; for ED50: po, 0.75 h. How it is done: Male Wistar rats weighing 200 grammes which have been trained to jump over a barrier in an avoidance and escape cage (shuttle box) (Letica, reference LI 910 and LI 2700) within 30 seconds of their being introduced into the cage are used in this test.
The products having an anxiolytic or tranquillising activity suppress the conditioned avoidance response.
Training: day one: 11 trials at 3 minute intervals. Electric shock to the paws after 30 seconds (5 mA, 0.1 s, 10 s).
Days two and three: 2 trials per day, with the selected rats only [sum of the scores for the first day (with the exception of the first trial)>14].
Test day: groups formed by selected rats. Oral administration of the product or the vehicle 45 minutes before the start of the study.

Experiment [2] deals with norepinephrine-induced death in rats. The experiment can be described thus: norepinephrine antagonism test in rats (antihypertensive activity). It counts as in vivo, rat (male Wister). The conditions noted are these: for Activity % (norepinephrine antagonistic antihypertensive activity): D = 40 mg/kg, i.p., rat, norepinephrine 1.25 mg/kg i.v. after 2 hours; for ED50: Rattus norvegicus, ip, 2 h, read-out: ED50 (norepinephrine antagonistic antihypertensive activity). How it is done: This activity is manifested by the protection of animals before death induced by an intravenous injection of norepinephrine, which produces a hypertensive attack in rats.
Male Wister rats weighing 200 grammes are used in this test. The product to be studied is administered intraperitoneally and 1.25 mg/kg (i.v.) of norepinephrine are administered after 2 hours.
The initial administration dose in these studies is 40 mg/kg (i.p.).

As for `c1ccc(-c2c(-c3ccccc3)n(CCCCN3CCN(c4ncccn4)CC3)c3ccccc23)cc1` [Example 4], the “Activity % (inhibition of the conditioned avoidance response)” value in experiment [1] came to 30%. Moreover, the “Activity % (norepinephrine antagonistic antihypertensive activity)” value in experiment [2] was 0%.
By ED50 is commonly meant the dose at which the effect has come halfway, by size or by number of responders. As for `NC(=O)c1cnn(CCCCN2CCN(c3ncccn3)CC2)c1` [Example 5, 4-carboxamido-1-{4-[4-(2-pyrimidinyl)-1-piperazinyl]-butyl}-1H-pyrazole], in experiment [1], the “Activity % (inhibition of the conditioned avoidance response)” value was 68% and the 50% effect level (ED50) was put at a dose of 33.5 mg/kg. Further, the “Activity % (norepinephrine antagonistic antihypertensive activity)” value in experiment [2] is 0%.
With `O=C(O)c1cnn(CCCCN2CCN(c3ncccn3)CC2)c1` [Example 6, 4-carboxy-1-{4-[4-(2-pyrimidinyl)-1-piperazinyl]-butyl}-1H-pyrazole], in experiment [1], the “Activity % (inhibition of the conditioned avoidance response)” value is given as 57% and it took a dose of 44.3 mg/kg to reach the 50% effect level (ED50). Moreover, in experiment [2], the “Activity % (norepinephrine antagonistic antihypertensive activity)” value is given as 75% and the ED50 stood at 31.7 mg/kg.
Consider `Cc1cc(C(F)(F)F)n(CCCCN2CCN(c3ncccn3)CC2)n1` [Example 7], for which, in experiment [1], the “Activity % (inhibition of the conditioned avoidance response)” value is recorded as 74% and the ED50 came out at 29 mg/kg. In addition, in experiment [2], the “Activity % (norepinephrine antagonistic antihypertensive activity)” value is given as 0%.
With `c1ccc(-c2ncn(CCCCN3CCN(c4ncccn4)CC3)c2-c2ccccc2)cc1` [Example 8], in experiment [1], the “Activity % (inhibition of the conditioned avoidance response)” value is recorded as 29%. For the same compound, the “Activity % (norepinephrine antagonistic antihypertensive activity)” value in experiment [2] was 0%.
The like results for `c1ccc(-c2nc(-c3ccccc3)n(CCCCN3CCN(c4ncccn4)CC3)c2-c2ccccc2)cc1` [Example 9] were, in that order, 8% and 0%.
With `Cc1nc(-c2ccccc2)c(-c2ccccc2)n1CCCCN1CCN(c2ncccn2)CC1` [Example 10], the “Activity % (inhibition of the conditioned avoidance response)” value in experiment [1] is 38%. In addition, the “Activity % (norepinephrine antagonistic antihypertensive activity)” value in experiment [2] came to 0%.
The like results for `Cc1nc(Cl)c(Cl)n1CCCCN1CCN(c2ncccn2)CC1` [Example 11, 4,5-dichloro-2-methyl-1-{4-[4-(2-pyrimidinyl)-1-piperazinyl]-butyl}-1H-imidazole] were, in that order, 82% and 0%.
The like results for `CCc1nccn1CCCCN1CCN(c2ncccn2)CC1` [Example 12] were, in that order, 46% and 0%.
Turning to `c1ccc(-c2nccn2CCCCN2CCN(c3ncccn3)CC2)cc1` [Example 13], in experiment [1], the “Activity % (inhibition of the conditioned avoidance response)” value is 70% and the ED50 was determined as 17.1 mg/kg. Besides, the “Activity % (norepinephrine antagonistic antihypertensive activity)” value in experiment [2] stood at 0%.
For the compound `COC(=O)c1cn(CCCCN2CCN(c3ncccn3)CC2)cn1` [Example 14], the “Activity % (inhibition of the conditioned avoidance response)” value in experiment [1] came to 38%. Moreover, the “Activity % (norepinephrine antagonistic antihypertensive activity)” value in experiment [2] was determined as 0%.
`c1ccc(-c2cn(CCCCN3CCN(c4ncccn4)CC3)cn2)cc1` [Example 15]: in experiment [1], the “Activity % (inhibition of the conditioned avoidance response)” value turned out to be 73% and the 50% effect level (ED50) was put at a dose of 28 mg/kg. In addition, the “Activity % (norepinephrine antagonistic antihypertensive activity)” value in experiment [2] is on record as 0%.
Regarding `c1cnc(N2CCN(CCCCn3cnc4ccccc43)CC2)nc1` [Example 16, 1-{4-[4-(2-pyrimidinyl)-1-piperazinyl]-butyl}-1H-benzimidazole], in experiment [1], the “Activity % (inhibition of the conditioned avoidance response)” value was 100% and it took a dose of 6.1 mg/kg to reach the 50% effect level (ED50). Further, the “Activity % (norepinephrine antagonistic antihypertensive activity)” value in experiment [2] was 0%.
With `c1cnc(N2CCN(CCCCn3cnc4cccnc43)CC2)nc1` [Example 17, 1-{4-[-4-(2-pyrimidinyl)-1-piperazinyl]-butyl}-3H-imidazo[5,4-b]pyridine], in experiment [1], the “Activity % (inhibition of the conditioned avoidance response)” value is listed as 86% and it took a dose of 21.9 mg/kg to reach the 50% effect level (ED50). The “Activity % (norepinephrine antagonistic antihypertensive activity)” value in experiment [2] was 0%.
Consider `c1cnc(N2CCN(CCCCn3cnc4ncccc43)CC2)nc1` [Example 18, 1-{4-[4-(2-pyrimidinyl)-1-piperazinyl]-butyl}-1H-imidazo[4,5-b]pyridine], for which, in experiment [1], the “Activity % (inhibition of the conditioned avoidance response)” value is on record as 91% and the ED50 worked out at 25.6 mg/kg. In addition, in experiment [2], the “Activity % (norepinephrine antagonistic antihypertensive activity)” value is recorded as 100% and the ED50 came out at 3.97 mg/kg.
`c1cnc(N2CCN(CCCCn3nnc4ccccc43)CC2)nc1` [Example 19]: the “Activity % (inhibition of the conditioned avoidance response)” value in experiment [1] worked out at 99%. Further, the “Activity % (norepinephrine antagonistic antihypertensive activity)” value in experiment [2] turned out to be 0%.
For the compound `Clc1nc2ccccc2n1CCCCN1CCN(c2ncccn2)CC1` [Example 20], in experiment [1], the “Activity % (inhibition of the conditioned avoidance response)” value was 77% and the 50% effect level (ED50) was put at a dose of 15.4 mg/kg. Also, in experiment [2], the “Activity % (norepinephrine antagonistic antihypertensive activity)” value came out at 0%.
For the compound `Clc1ccc2c(c1)ncn2CCCCN1CCN(c2ncccn2)CC1` [Example 21], in experiment [1], the “Activity % (inhibition of the conditioned avoidance response)” value worked out at 100% and it took a dose of 9.3 mg/kg to reach the 50% effect level (ED50). For the same compound, in experiment [2], the “Activity % (norepinephrine antagonistic antihypertensive activity)” value was found to be 0%.
The like results for `Clc1ccc2ncn(CCCCN3CCN(c4ncccn4)CC3)c2c1` [Example 22] were, in that order, 100%, 9.1 mg/kg and 0%.
The corresponding values for `c1cnc(N2CCN(CCCCn3cncn3)CC2)nc1` [Example 23] are 100%, 6.3 mg/kg and 50%.
Turning to `c1cnc(N2CCN(CCCCn3nc4ccccc4n3)CC2)nc1` [Example 24], the “Activity % (inhibition of the conditioned avoidance response)” value in experiment [1] is 87%. Also, the “Activity % (norepinephrine antagonistic antihypertensive activity)” value in experiment [2] is reported as 50%.
`Cc1nc2ccccc2n1CCCCN1CCN(c2ncccn2)CC1` [Example 25]: in experiment [1], the “Activity % (inhibition of the conditioned avoidance response)” value is 52% and the ED50 was found to be 61.7 mg/kg. For the same compound, in experiment [2], the “Activity % (norepinephrine antagonistic antihypertensive activity)” value turned out to be 25%.
The like results for `Cc1cc2ncn(CCCCN3CCN(c4ncccn4)CC3)c2cc1C` [Example 26] were, in that order, 88%, 34.5 mg/kg and 0%.
Turning to `COc1ccc(N2CCN(CCCCn3cc(Cl)cn3)CC2)cc1` [Example 27], the “Activity % (inhibition of the conditioned avoidance response)” value in experiment [1] amounted to 88%. Also, the “Activity % (norepinephrine antagonistic antihypertensive activity)” value in experiment [2] came out at 0%.
In the case of `COc1ccc(N2CCN(CCCCn3c(C)nc(Cl)c3Cl)CC2)cc1` [Example 28], in experiment [1], the “Activity % (inhibition of the conditioned avoidance response)” value amounted to 75% and it took a dose of 37.5 mg/kg to reach the 50% effect level (ED50). Moreover, in experiment [2], the “Activity % (norepinephrine antagonistic antihypertensive activity)” value is 100% and the ED50 was 14 mg/kg.
The like results for `COc1ccccc1N1CCN(CCCCn2cc(Cl)cn2)CC1` [Example 29] were, in that order, 100%, 8.9 mg/kg, 100% and 0.46 mg/kg.
The corresponding values for `COc1ccccc1N1CCN(CCCCn2c(C)nc(Cl)c2Cl)CC1` [Example 30] are 95%, 12.8 mg/kg, 100% and 0.18 mg/kg.
The like results for `COc1cccc(N2CCN(CCCCn3cc(Cl)cn3)CC2)c1` [Example 31] were, in that order, 100%, 20.8 mg/kg, 0% and 8.9 mg/kg.
Regarding `COc1ccc(N2CCN(CCCCn3cccc3)CC2)cc1` [Example 32], in experiment [1], the “Activity % (inhibition of the conditioned avoidance response)” value stood at 83% and it took a dose of 50 mg/kg to reach the 50% effect level (ED50). The “Activity % (norepinephrine antagonistic antihypertensive activity)” value in experiment [2] came out at 0%.
In the case of `COc1ccccc1N1CCN(CCCCn2cccc2)CC1` [Example 33], in experiment [1], the “Activity % (inhibition of the conditioned avoidance response)” value turned out to be 99% and it took a dose of 23.9 mg/kg to reach the 50% effect level (ED50). In addition, in experiment [2], the “Activity % (norepinephrine antagonistic antihypertensive activity)” value is 100% and the ED50 was 2.23 mg/kg.
Regarding `c1ccc(N2CCN(CCCCn3cccc3)CC2)cc1` [Example 34], in experiment [1], the “Activity % (inhibition of the conditioned avoidance response)” value worked out at 96% and the 50% effective dose (ED50) amounted to 23.7 mg/kg. Also, in experiment [2], the “Activity % (norepinephrine antagonistic antihypertensive activity)” value was determined as 100% and the ED50 came to 10 mg/kg.
In the case of `Clc1cnn(CCCCN2CCN(c3ccccc3)CC2)c1` [Example 35, 4-chloro-1-[4-(4-phenyl-1-piperazinyl)-butyl]-1H-pyrazole], in experiment [1], the “Activity % (inhibition of the conditioned avoidance response)” value was 100% and the 50% effect level (ED50) was put at a dose of 20.7 mg/kg. In addition, in experiment [2], the “Activity % (norepinephrine antagonistic antihypertensive activity)” value is 100% and the ED50 turned out to be 4.1 mg/kg.
Consider `Cc1nc(Cl)c(Cl)n1CCCCN1CCN(c2ccccc2)CC1` [Example 36], for which, in experiment [1], the “Activity % (inhibition of the conditioned avoidance response)” value stood at 76% and the 50% effect level (ED50) was put at a dose of 42 mg/kg. Moreover, in experiment [2], the “Activity % (norepinephrine antagonistic antihypertensive activity)” value is on record as 100% and the ED50 amounted to 7.6 mg/kg.
The like results for `Clc1cnn(CCCCN2CCN(c3ccccc3Cl)CC2)c1` [Example 37] were, in that order, 86%, 29.5 mg/kg, 100% and 1.9 mg/kg.
